Assay results as given in patent US20090239894A1, “Stabilized aqueous solutions of ergoline compounds” (priority 2008, published 2009).
Where two headings read alike, the source gives them in different places.

Key:
[1] = Solubility in water / phosphate-buffered solution (pH 7.4)
[2] = propylene glycol as low-dose additive (less than 10%)
[3] = 9% propylene glycol; for Average area (percent of lisuride peak area relative to total peak area): no buffer
Protocol: An aqueous solution of lisuride hydrogen maleate which additionally contained 9% propylene glycol was investigated. The active ingredient concentration was adjusted to 2 mg per 3 mL. No buffer system was added. The remaining procedure included weighing 33.3 mg of the active ingredient into a scaled 50 mL flask, then adding the propylene glycol (4.5 g) and also adding 40 mL water. The flask was agitated for several minutes and then exposed to ultrasound until the active ingredient was completely dissolved. The flask was cooled to room temperature and topped off with double-distilled water up to the mark.
The solution was poured into transparent glass ampoules with a volume of 1 mL. These ampoules were sealed airtight and wrapped with aluminum foil to protect them from light. The ampoules were each stored at 6-8° C., 25° C. and 40° C.

[4] = Protocol: Solutions of lisuride hydrogen maleate with a concentration of 2 mg active ingredient per 3 mL solution were investigated with regard to their temperature-dependent stability. These solutions were buffered using a citrate buffer system, so that the pH value of the pure medium was adjusted to 5.1, 4.5 and 3.5. Aqueous solutions of citric acid monohydrate and trisodium citrate dihydrate (0.53 mM each) were prepared.
Suitable mixing of these solutions yielded aqueous buffer systems with a pH of 4.5 and/or 3.5. After 33.3 mg lisuride hydrogen maleate had been weighed out in a scaled 50 mL flask, 40 mL of the corresponding buffer medium was added. The flasks were agitated for several minutes and then exposed to ultrasound for several minutes until the active ingredient was completely dissolved. The solutions were cooled to room temperature and topped off to the mark with buffer medium.
In the case of the more strongly basic medium (pH 5.1), a supply solution was prepared, containing citric acid monohydrate (0.38 mM) and trisodium citrate dihydrate (0.68 mM). This was used to dissolve the active ingredient. In principle, double-distilled water was used to prepare the solutions.
The resulting solutions were stored under three different conditions: under refrigeration at 6 to 8° C., at room temperature (25° C.) and at an elevated temperature of 40° C. The solutions were stored in sealed glass ampoules which were wrapped with aluminum foil for protection from light. After suitable intervals of time, samples were analyzed by means of a specific reverse phase HPLC method with UV detection (running time 30 min, retention time of lisuride ˜13 min).

[5] = 60° C., one week, dark
Protocol: The additives used were propylene glycol and Cremophor ELP in concentrations between 1.00% and 10.00%.
The solutions were prepared by analogy with the procedure used in examples 1 and 2.
The solutions were stored in the dark in glass containers at 60° C. for one week.

[6] = cited from earlier work

CCCN1C[C@@H](NC(=O)N(CC)CC)C[C@@H]2c3cccc4[nH]cc(c34)C[C@H]21 [proterguride]
solubility ([1]; free compound, phosphate-buffered solution (pH 7.4)): 2.6 mg/100 mL
solubility in water relative to lisuride ([1]; water): comparable to that of lisuride

CCN(CC)C(=O)N[C@H]1C=C2c3cccc4[nH]cc(c34)C[C@H]2N(C)C1.O=C(O)/C=C\C(=O)O [lisuride hydrogen maleate]
solubility of the active ingredient with propylene glycol [2]: improved solubility
discoloration of the solutions ([3]; elevated temperature): slight yellow discoloration was observed only after a storage time of 90 days
Average area (percent of lisuride peak area relative to total peak area) ([3]; 6-8° C., t 0 d): 99.80%
Average area (percent of lisuride peak area relative to total peak area) ([3]; 6-8° C., t 7 d): 99.79%
Average area (percent of lisuride peak area relative to total peak area) ([3]; 6-8° C., t 30 d): 99.67%
Average area (percent of lisuride peak area relative to total peak area) ([3]; 6-8° C., t 90 d): 99.52%
Average area (percent of lisuride peak area relative to total peak area) ([3]; 6-8° C., t 180 d): 99.36%
Average area (percent of lisuride peak area relative to total peak area) ([3]; 25° C., t 0 d): 99.80%
Average area (percent of lisuride peak area relative to total peak area) ([3]; 25° C., t 7 d): 99.79%
Average area (percent of lisuride peak area relative to total peak area) ([3]; 25° C., t 30 d): 99.46%
Average area (percent of lisuride peak area relative to total peak area) ([3]; 25° C., t 90 d): 99.15%
Average area (percent of lisuride peak area relative to total peak area) ([3]; 25° C., t 180 d): 98.35%
Average area (percent of lisuride peak area relative to total peak area) ([3]; 40° C., t 0 d): 99.80%
Average area (percent of lisuride peak area relative to total peak area) ([3]; 40° C., t 7 d): 99.33%
Average area (percent of lisuride peak area relative to total peak area) ([3]; 40° C., t 30 d): 97.59%
Average area (percent of lisuride peak area relative to total peak area) ([3]; 40° C., t 90 d): 94.06%
Average area (percent of lisuride peak area relative to total peak area) ([3]; 40° C., t 180 d): 89.76%
active ingredient decomposed ([3]; refrigeration, 180 days): approximately 0.4%
remaining active ingredient content in comparison with the initial concentration ([3]; room temperature, 180 days): 98.4%
active ingredient decomposed ([3]; storage at 40° C.): approximately 10%
stability compared with solutions without propylene glycol (Example 1) ([3]; 6-8° C., 25° C. and 40° C.): significantly more stable
Average area (percent of lisuride peak area relative to total peak area) ([4]; citrate buffer pH 3.5, 6-8° C., t 0 d): 99.87%
Average area (percent of lisuride peak area relative to total peak area) ([4]; citrate buffer pH 3.5, 6-8° C., t 7 d): 99.92%
Average area (percent of lisuride peak area relative to total peak area) ([4]; citrate buffer pH 3.5, 6-8° C., t 30 d): 99.80%
Average area (percent of lisuride peak area relative to total peak area) ([4]; citrate buffer pH 3.5, 6-8° C., t 90 d): 99.57%
Average area (percent of lisuride peak area relative to total peak area) ([4]; citrate buffer pH 3.5, 6-8° C., t 180 d): 99.22%
Average area (percent of lisuride peak area relative to total peak area) ([4]; citrate buffer pH 3.5, 25° C., t 0 d): 99.87%
Average area (percent of lisuride peak area relative to total peak area) ([4]; citrate buffer pH 3.5, 25° C., t 7 d): 99.89%
Average area (percent of lisuride peak area relative to total peak area) ([4]; citrate buffer pH 3.5, 25° C., t 30 d): 99.37%
Average area (percent of lisuride peak area relative to total peak area) ([4]; citrate buffer pH 3.5, 25° C., t 90 d): 98.70%
Average area (percent of lisuride peak area relative to total peak area) ([4]; citrate buffer pH 3.5, 25° C., t 180 d): 94.14%
Average area (percent of lisuride peak area relative to total peak area) ([4]; citrate buffer pH 3.5, 40° C., t 0 d): 99.87%
Average area (percent of lisuride peak area relative to total peak area) ([4]; citrate buffer pH 3.5, 40° C., t 7 d): 98.89%
Average area (percent of lisuride peak area relative to total peak area) ([4]; citrate buffer pH 3.5, 40° C., t 30 d): 90.41%
Average area (percent of lisuride peak area relative to total peak area) ([4]; citrate buffer pH 3.5, 40° C., t 90 d): 73.37%
Average area (percent of lisuride peak area relative to total peak area) ([4]; citrate buffer pH 3.5, 40° C., t 180 d): 69.91%
Average area (percent of lisuride peak area relative to total peak area) ([4]; citrate buffer pH 4.5, 6-8° C., t 0 d): 99.79%
Average area (percent of lisuride peak area relative to total peak area) ([4]; citrate buffer pH 4.5, 6-8° C., t 7 d): 99.88%
Average area (percent of lisuride peak area relative to total peak area) ([4]; citrate buffer pH 4.5, 6-8° C., t 30 d): 99.73%
Average area (percent of lisuride peak area relative to total peak area) ([4]; citrate buffer pH 4.5, 6-8° C., t 90 d): 99.75%
Average area (percent of lisuride peak area relative to total peak area) ([4]; citrate buffer pH 4.5, 6-8° C., t 180 d): 99.11%
Average area (percent of lisuride peak area relative to total peak area) ([4]; citrate buffer pH 4.5, 25° C., t 0 d): 99.79%
Average area (percent of lisuride peak area relative to total peak area) ([4]; citrate buffer pH 4.5, 25° C., t 7 d): 99.84%
Average area (percent of lisuride peak area relative to total peak area) ([4]; citrate buffer pH 4.5, 25° C., t 30 d): 99.26%
Average area (percent of lisuride peak area relative to total peak area) ([4]; citrate buffer pH 4.5, 25° C., t 90 d): 98.14%
Average area (percent of lisuride peak area relative to total peak area) ([4]; citrate buffer pH 4.5, 25° C., t 180 d): 95.90%
Average area (percent of lisuride peak area relative to total peak area) ([4]; citrate buffer pH 4.5, 40° C., t 0 d): 99.79%
Average area (percent of lisuride peak area relative to total peak area) ([4]; citrate buffer pH 4.5, 40° C., t 7 d): 98.82%
Average area (percent of lisuride peak area relative to total peak area) ([4]; citrate buffer pH 4.5, 40° C., t 30 d): 94.96%
Average area (percent of lisuride peak area relative to total peak area) ([4]; citrate buffer pH 4.5, 40° C., t 90 d): 90.39%
Average area (percent of lisuride peak area relative to total peak area) ([4]; citrate buffer pH 4.5, 40° C., t 180 d): 87.71%
Average area (percent of lisuride peak area relative to total peak area) ([4]; citrate buffer pH 5.1, 6-8° C., t 0 d): 100.00%
Average area (percent of lisuride peak area relative to total peak area) ([4]; citrate buffer pH 5.1, 6-8° C., t 7 d): 99.90%
Average area (percent of lisuride peak area relative to total peak area) ([4]; citrate buffer pH 5.1, 6-8° C., t 30 d): 99.72%
Average area (percent of lisuride peak area relative to total peak area) ([4]; citrate buffer pH 5.1, 6-8° C., t 90 d): 99.59%
Average area (percent of lisuride peak area relative to total peak area) ([4]; citrate buffer pH 5.1, 6-8° C., t 180 d): 99.29%
Average area (percent of lisuride peak area relative to total peak area) ([4]; citrate buffer pH 5.1, 25° C., t 0 d): 100.00%
Average area (percent of lisuride peak area relative to total peak area) ([4]; citrate buffer pH 5.1, 25° C., t 7 d): 99.79%
Average area (percent of lisuride peak area relative to total peak area) ([4]; citrate buffer pH 5.1, 25° C., t 30 d): 99.36%
Average area (percent of lisuride peak area relative to total peak area) ([4]; citrate buffer pH 5.1, 25° C., t 90 d): 98.64%
Average area (percent of lisuride peak area relative to total peak area) ([4]; citrate buffer pH 5.1, 25° C., t 180 d): 95.45%
Average area (percent of lisuride peak area relative to total peak area) ([4]; citrate buffer pH 5.1, 40° C., t 0 d): 100.00%
Average area (percent of lisuride peak area relative to total peak area) ([4]; citrate buffer pH 5.1, 40° C., t 7 d): 98.86%
Average area (percent of lisuride peak area relative to total peak area) ([4]; citrate buffer pH 5.1, 40° C., t 30 d): 94.71%
Average area (percent of lisuride peak area relative to total peak area) ([4]; citrate buffer pH 5.1, 40° C., t 90 d): 90.99%
Average area (percent of lisuride peak area relative to total peak area) ([4]; citrate buffer pH 5.1, 40° C., t 180 d): 87.98%
decomposition of the active ingredient ([4]; citrate-buffered (pH 5.1, 4.5, 3.5), room temperature, within 180 days): 5%
decomposition of the active ingredient ([4]; citrate-buffered, storage at 40° C.): up to 30%
decomposition of the active ingredient ([4]; citrate-buffered, storage under refrigeration): approximately 0.7%
discoloration of the solutions ([4]; citrate-buffered, stored at 40° C.): significant yellow discoloration after only 30 days, turning brown after another 60 days
degradation of the active ingredient ([5]; 1% Cremophor ELP): 14.3%
degradation of the active ingredient ([5]; 10% Cremophor ELP): 21.3%
remaining active ingredient content ([5]; propylene glycol): 92.5%

CC(O)CO (centres unmarked) [propylene glycol, 1,2-propanediol (propylene glycol)]
estimated amount acceptable as a daily oral dose [6]: 25 mg/kg body weight

CCN(CC)C(=O)N[C@H]1C=C2c3cccc4[nH]cc(c34)C[C@H]2N(C)C1 [lisuride]
solubility (estimated) ([1]; free lisuride, calculated from solubility data of active ingredients/salts (Zimmermann 1983)): ~2.2 mg/100 mL
